Series [1] deals with T1, human cytochrome P450 17A1 (Homo sapiens, UniProt P05093).
T1 construct: made in house
T1 sequence (P05093 1-508): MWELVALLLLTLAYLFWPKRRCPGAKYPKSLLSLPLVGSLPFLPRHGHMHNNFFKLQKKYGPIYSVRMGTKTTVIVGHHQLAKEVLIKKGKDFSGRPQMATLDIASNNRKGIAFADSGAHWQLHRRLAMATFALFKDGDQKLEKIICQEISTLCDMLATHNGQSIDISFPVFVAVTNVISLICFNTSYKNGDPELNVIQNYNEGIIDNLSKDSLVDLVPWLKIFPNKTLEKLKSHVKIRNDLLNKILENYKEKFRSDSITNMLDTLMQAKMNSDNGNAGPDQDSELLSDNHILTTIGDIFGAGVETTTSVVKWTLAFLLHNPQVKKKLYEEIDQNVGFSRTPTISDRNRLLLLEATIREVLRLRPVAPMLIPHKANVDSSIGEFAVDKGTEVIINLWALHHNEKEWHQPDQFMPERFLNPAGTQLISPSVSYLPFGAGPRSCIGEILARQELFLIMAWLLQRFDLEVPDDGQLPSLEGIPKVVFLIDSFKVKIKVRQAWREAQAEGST
In words: Spectral binding assay (CYP17A1 ligand binding). As to conditions: purified recombinant human CYP17A1, spectral titration. The text has this: The target compounds were initially tested for binding mode and affinity for CYP17A1 using a spectral binding assay. This assay can distinguish the mode of interaction, with a blue shift of the Soret absorbance occurring when ligand displaces water from the heme iron to generate a five-coordinate iron without direct coordination to the heme iron (type I, similar to most substrates) or a red shift of the Soret peak when the ligand nitrogen replaces the water to directly interact with the six-coordinate iron (type II, similar to many inhibitors). […] This 3-pyridyl fragment is also found in abiraterone.
Initial ligand binding was evaluated by measuring absorbance changes in CYP17A1 upon addition of ligands. Purified recombinant human cytochrome P450 17A1 enzyme (1 µM) in buffer (25 mM potassium phosphate, pH 7.4, 200 mM NaCl, 20% glycerol) was titrated with ligands. Ligands were dissolved in DMSO and added to three concentrations (500, 1000, and 2000 nM). The spectral intensity difference (ΔA) was measured as difference between […]. The Amin was typically at ~410 nm and Amax at ~440 nm for the type II changes observed for these ligands.
S2. Binding spectra and CYP IC50 curves
Difference spectrum of cytochrome P450 17A1 with vs. without compound 1a (2 µM).
All compounds are type II and display the same shift as the example above.
(1 picture or pasted object on this page, not shown here)

Another series relates to BJ hTERT fibroblasts. In words: Proliferation screening in non-cancerous fibroblasts. It counts as cell-based. Particulars: 10 µM, 48 h. Here is the method:
(§1) Next, we tested the effect of compounds 1a–1e on prostate cancer derived cell lines. The anti-proliferative activity was determined in vitro by adding 10 µM compound to each of three prostate cancer cell lines (LNCaP, DU145, and PC3). As an additional comparison, immortalized non-cancerous fibroblasts (BJ hTERT) were used. These cancer cell lines are considered the classic standard of PCa cell culture. Since these cell lines grew at very different rates, inhibition of growth rate (GR) was used as a metric. All compounds except 1e were non-toxic to non-cancerous cells. Compounds 1a and 1c were both cytotoxic in the PC3 cell line (Figure 3). […] DU145 cells were weakly affected by only compound 1e with growth rate inhibition more than 50% (GR < 0.5). […] We observed substantial susceptibility of PC3 cells in comparison to DU145 (see Supplementary Materials S3 for GR50 in PC3 cells). These two cell lines are similar in many respects. […]
(§2) Cells were grown to approximately 80% confluence in 150 mm culture dishes and harvested by 0.25% Trypsin/EDTA (Gibco) treatment. Released cells were counted and seeded in 384 well plates (Falcon, ref. 353962) in 30 µl media with a cell count of 1500 (BJ cells, PC-3) or and 3500 (LNCaP (Lund)) cells per well. […] The cells incubated for 24 h, after which cell counts in wells of one 384-well plate were determined as described below (time zero). […]

The test system of the next series is PC3 cells. In words: Prostate cancer cell line proliferation screening (GR), PC3. It counts as cell-based, human. As to conditions: 10 µM, 48 h. The protocol:
Next, we tested the effect of compounds 1a–1e on prostate cancer derived cell lines. The anti-proliferative activity was determined in vitro by adding 10 µM compound to each of three prostate cancer cell lines (LNCaP, DU145, and PC3). As an additional comparison, immortalized non-cancerous fibroblasts (BJ hTERT) were used. These cancer cell lines are considered the classic standard of PCa cell culture. Since these cell lines grew at very different rates, inhibition of growth rate (GR) was used as a metric. All compounds except 1e were non-toxic to non-cancerous cells. Compounds 1a and 1c were both cytotoxic in the PC3 cell line (Figure 3). […] DU145 cells were weakly affected by only compound 1e with growth rate inhibition more than 50% (GR < 0.5). […] We observed substantial susceptibility of PC3 cells in comparison to DU145 (see Supplementary Materials S3 for GR50 in PC3 cells). These two cell lines are similar in many respects. […] However, they differ in their origins, PC3 being derived from a lumbar vertebral metastatic prostate tumour and DU145 from a brain metastatic prostate tumour. […] By observing a uniform response of all cell lines used in the present study to 5-fluorouracil (5-FU), we were able to rule out any general cell dependent variability in chemosensitivity towards anti-metabolite treatment. Still, chemoresistance in PC3 and DU145 may be mediated by other mechanisms. While AR also functions as a tumour suppressor inhibiting cell proliferation, it is possible in AR deprived cells to observe growth inhibition when cells retain necessary coregulators. […]
as §2

In the next series the test system is DU145 cells. In words: Prostate cancer cell line proliferation screening (GR), DU145. It counts as cell-based, human. Here is the method:
as §1, §2

Structures are written as SMILES. Entries after “also recorded” stand apart in the source; their conditions may differ. Some results are limits rather than exact numbers.

The Kd is the constant that tells how readily two partners part at equilibrium. Consider `c1cncc(Nc2ccc(-n3cnc4ccccc43)cc2)c1` [Compound 1c], for which the dissociation constant (Kd) in series [1] came out at 96 ± 22 nM. In addition, the “Toxicity to non-cancerous cells (BJ hTERT fibroblasts)” value in the series on BJ hTERT fibroblasts is listed as “non-toxicity”. In the series with PC3 cells, the “Antiproliferative response in PC3 cells (growth rate inhibition, in words)” value is listed as “cytotoxic; also recorded: high cytotoxicity”.

Usually inhibition stands for the change of the read-out against control, counted positive when it falls. With `c1ccc2c(c1)ccn2-c1ccc(Nc2ccncc2)cc1` [Compound 1e], in series [1], the Kd came to 120 ± 34 nM. Besides, the “Growth rate inhibition value (GR) in DU145 cells” value with DU145 cells (10 µM, 48 h) is recorded as less than 0.5. In addition, in the series on DU145 cells (Homo sapiens, DU-145, 48 h, read-out: Growth rate inhibition in DU145 cells), the inhibition at 10 µM is greater than 50%.

The values above are taken from PMC7402352, “Discovery of Novel Non-Steroidal Cytochrome P450 17A1 Inhibitors as Potential Prostate Cancer Agents” (International Journal of Molecular Sciences, 2020).
